Reference: patent US5599953A, “C-glycoside analogues of N-(4-hydroxyphenyl)retinamide-O-glucuronide” (The Ohio State Research Foundation, priority 1995, dated 1997)
“Also recorded” adds a separate entry of the source. Read-outs that look alike come from different tables or passages of the source. One block for each compound: values may come before it.

Assays:
[1] = target: T1, human retinoic acid receptor γ (Homo sapiens, UniProt P13631); assay: Competition binding / retinoic acid binding, human retinoic acid receptor γ/BCV (FIG. 1)
T1 construct: made in house
T1 sequence (P13631 1-454): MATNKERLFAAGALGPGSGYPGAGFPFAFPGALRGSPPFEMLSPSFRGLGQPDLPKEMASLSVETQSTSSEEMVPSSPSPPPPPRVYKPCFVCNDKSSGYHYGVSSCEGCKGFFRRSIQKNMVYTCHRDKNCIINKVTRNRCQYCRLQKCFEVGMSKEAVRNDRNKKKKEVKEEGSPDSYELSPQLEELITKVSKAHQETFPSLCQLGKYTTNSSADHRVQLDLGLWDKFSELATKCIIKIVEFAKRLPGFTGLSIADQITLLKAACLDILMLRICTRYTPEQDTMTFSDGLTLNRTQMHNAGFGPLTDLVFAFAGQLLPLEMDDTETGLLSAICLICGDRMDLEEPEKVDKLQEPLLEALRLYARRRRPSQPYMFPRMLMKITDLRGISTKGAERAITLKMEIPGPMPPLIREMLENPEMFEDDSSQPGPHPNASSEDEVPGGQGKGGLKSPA

[2] = test system: DMBA-Induced Rat Mammary Tumors; assay: Effect on progression of DMBA-induced rat mammary tumors; format: in vivo; settings: 1 mmol/Kg in diet
From the text: The control rats received DMBA intubation only and AIN-76A rat chow.

MCF-7 cells = assay: Growth inhibition of MCF-7 human mammary tumor cells; format: cell-based; settings: for IC50: Homo sapiens, MCF7, 168 h, 7 days, read-out: ED50 for growth inhibition of MCF-7 cells; for growth inhibition of MCF-7 cells, in words: comparison of drugs
Experimental: The antiproliferative activity of the drugs in MCF-7 human mammary tumor cell culture models were determined.
The MCF-7 cells were obtained originally from the Michigan Cancer Foundation. The cells were routinely grown as monolayers in T-25 plastic tissue culture flasks from Falcon, in Oxnard, Calif. containing 5.0 mL of B-10 medium consisting of Minimum Essential Medium (MEM, Earle's Base) supplemented with 1.0 mM MEM non-essential amino acid, 2.0 mM 1-glutamine,10% fetal bovine serum (FBS), and antibiotics. Culture conditions included a humidified atmosphere of 5% CO2 at 37° C. One-half of the medium was replenished twice a week. Cells were harvested by trypsinization upon confluency. All variables were evaluated in triplicate.
For the growth inhibition assay the MCF-7 cells were plated in 24-well plates at a density of 1.5×10^4 cells/cm^2. […] Control cultures were treated with an equivalent volume of absolute ethanol. On day 7 the cells were harvested by trypsinization and viability was assessed by trypan blue exclusion according to Ueda, H. et al. Cancer 1980, 46, 2203-2209. Total cell counts were obtained using a hemocytometer as well as a the Coulter Counter.

mRARα = target: T2, mRARα (Mus musculus, UniProt P11416); assay: Drug competition with (3H)retinoic acid binding, mRARα; settings: read-out: percent reduction of binding of the (3H)retinoic acid, mRARα
T2 construct: made in house; host or cells: Spodoptera frugiperda insect cells, baculovirus (whole cell extract)
T2 sequence (P11416 1-462): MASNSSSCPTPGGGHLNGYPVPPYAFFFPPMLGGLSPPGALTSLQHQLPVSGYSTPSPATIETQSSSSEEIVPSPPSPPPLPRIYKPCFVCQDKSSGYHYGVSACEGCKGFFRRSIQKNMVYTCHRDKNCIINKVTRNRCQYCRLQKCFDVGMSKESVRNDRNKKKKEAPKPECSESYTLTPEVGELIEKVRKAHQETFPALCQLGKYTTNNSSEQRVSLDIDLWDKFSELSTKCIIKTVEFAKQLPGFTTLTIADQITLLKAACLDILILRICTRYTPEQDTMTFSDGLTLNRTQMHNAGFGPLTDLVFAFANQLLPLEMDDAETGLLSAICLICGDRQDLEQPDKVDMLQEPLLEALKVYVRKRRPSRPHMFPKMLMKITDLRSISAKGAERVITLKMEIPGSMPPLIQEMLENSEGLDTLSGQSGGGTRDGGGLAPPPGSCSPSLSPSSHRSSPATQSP

mRARβ = target: T3, mRARβ (Mus musculus, UniProt P22605); assay: Drug competition with (3H)retinoic acid binding, mRARβ; settings: read-out: percent reduction of binding of the (3H)retinoic acid, mRARβ; 1 μM drug; 5 nM [3H]RA
T3 construct: made in house; host or cells: Spodoptera frugiperda insect cells, baculovirus (whole cell extract)
T3 sequence (P22605 1-448 isoform P22605-3): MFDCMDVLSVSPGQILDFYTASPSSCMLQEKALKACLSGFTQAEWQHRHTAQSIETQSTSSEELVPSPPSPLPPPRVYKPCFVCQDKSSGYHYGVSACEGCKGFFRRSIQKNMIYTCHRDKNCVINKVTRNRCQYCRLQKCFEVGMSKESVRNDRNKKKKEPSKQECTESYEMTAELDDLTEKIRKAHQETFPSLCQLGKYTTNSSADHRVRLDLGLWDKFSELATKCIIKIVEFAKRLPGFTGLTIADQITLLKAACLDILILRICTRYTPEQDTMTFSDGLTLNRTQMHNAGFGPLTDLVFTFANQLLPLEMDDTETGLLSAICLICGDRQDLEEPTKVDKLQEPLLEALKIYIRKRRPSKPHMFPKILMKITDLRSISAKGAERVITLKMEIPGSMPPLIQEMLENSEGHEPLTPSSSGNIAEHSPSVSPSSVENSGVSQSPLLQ

mRARγ = target: T4, mRARγ (Mus musculus, UniProt P18911); assay: Drug competition with (3H)retinoic acid binding, mRARγ; settings: read-out: percent reduction of binding of the (3H)retinoic acid, mRARγ; 1 μM drug; 5 nM [3H]RA
T4 construct: made in house; host or cells: Spodoptera frugiperda insect cells, baculovirus (whole cell extract)
T4 sequence (P18911 1-458): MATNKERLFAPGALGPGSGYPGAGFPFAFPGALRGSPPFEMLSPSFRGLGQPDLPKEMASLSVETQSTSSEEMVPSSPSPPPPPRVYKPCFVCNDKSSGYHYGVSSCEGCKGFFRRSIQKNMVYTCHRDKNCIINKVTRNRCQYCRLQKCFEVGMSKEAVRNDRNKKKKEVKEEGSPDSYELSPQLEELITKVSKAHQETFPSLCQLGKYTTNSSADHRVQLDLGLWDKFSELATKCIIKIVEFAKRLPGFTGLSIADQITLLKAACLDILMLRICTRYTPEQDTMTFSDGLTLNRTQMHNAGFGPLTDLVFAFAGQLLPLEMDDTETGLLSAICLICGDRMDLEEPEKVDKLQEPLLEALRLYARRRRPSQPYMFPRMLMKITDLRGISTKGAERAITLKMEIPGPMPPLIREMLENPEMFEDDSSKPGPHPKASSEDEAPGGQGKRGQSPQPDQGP

[3] = test system: retinoic acid receptors α, β and γ; assay: Competition with retinoic acid for retinoic acid receptors (RAR α, β, γ), overall; format: binding; settings: 1 μM drug
[4] = Acid stability, 0.1N methanolic HCl at 37° C. for 2 hours; format: physicochemical
Experimental: To determine the stability of the C-glucopyranosiduronate linkage towards acidic conditions, samples of 4-HPR-O-glucuronide, 4-(retinamido)phenyl-C-glucuronide and 4-(retinamido)benzyl-C-glucuronide were treated with 0.1N methanolic HCl at 37° C. for 2 hours.

β-glucuronidase [5] = target: T5, β-glucuronidase (Homo sapiens, UniProt P08236); assay: Inhibition of β-glucuronidase mediated hydrolysis of 4-HPR-O-glucuronide; format: biochemical; settings: for IC50: 10% methanol as co-solvent, 4-HPR-O-glucuronide below 184.5 μM
T5 sequence (P08236 23-651): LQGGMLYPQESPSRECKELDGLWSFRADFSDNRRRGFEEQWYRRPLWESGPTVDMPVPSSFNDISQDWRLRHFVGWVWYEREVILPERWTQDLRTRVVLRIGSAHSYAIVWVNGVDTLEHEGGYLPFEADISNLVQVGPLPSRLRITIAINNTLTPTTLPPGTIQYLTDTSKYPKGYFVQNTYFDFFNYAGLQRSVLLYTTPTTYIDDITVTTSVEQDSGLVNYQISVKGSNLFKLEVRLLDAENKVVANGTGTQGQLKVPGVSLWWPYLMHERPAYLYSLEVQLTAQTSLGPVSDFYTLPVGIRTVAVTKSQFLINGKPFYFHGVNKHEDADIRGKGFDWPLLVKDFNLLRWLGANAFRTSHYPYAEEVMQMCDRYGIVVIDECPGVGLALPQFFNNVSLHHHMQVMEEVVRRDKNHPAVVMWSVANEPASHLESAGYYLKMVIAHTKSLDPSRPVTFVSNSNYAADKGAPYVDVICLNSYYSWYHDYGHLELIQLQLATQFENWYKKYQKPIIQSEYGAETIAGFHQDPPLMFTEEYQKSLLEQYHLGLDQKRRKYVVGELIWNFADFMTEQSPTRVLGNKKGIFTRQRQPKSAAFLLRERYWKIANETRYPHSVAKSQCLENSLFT
From the text: Chem. Soc., (1954), 76, 4872-4877.

cancer = settings: literature; cited from earlier work
[6] = Acid stability, 0.1N HCl at 37° C. for two hours; format: physicochemical; settings: HPLC
Experimental: Similarly, 1-(D-glucopyranosyluronosyl) retinamide and RAG were treated with 0.1N HCl at 37° C. for two hours.

β-glucuronidase [7] = target: T5, β-glucuronidase; assay: Stability toward β-glucuronidase mediated hydrolysis; format: in vitro ADME; settings: within twenty minutes
Experimental: Similarly 1-(D-glucopyranosyluronosyl) retinamide and RAG were evaluated for their stability toward β-glucuronidase medicated hydrolysis under the same conditions as described above.

Ki ([1]; 1.3 nM [3H]-retinoic acid): 0.71 µM
fold less effective than retinoic acid in competing for [3H]-retinoic acid binding to retinoic acid receptor γ ([1]; vs retinoic acid, FIG. 1): 1500 fold
SMILES: CC1=C(/C=C/C(C)=C/C=C/C(C)=C/C(=O)N[C@@H]2O[C@H](CO)[C@@H](O)[C@H](O)[C@H]2O)C(C)(C)CCC1 [1-(B-D-glucopyranosyl) retinamide, 1-(β-D-glucopyranosyl) retinamide]
effect on DMBA-induced mammary tumor development, in words [2]: significantly prolonged the latency period of mammary cancer; also recorded: tumor induction was markedly delayed and reduced; also recorded: greater mammary tumor chemopreventive effect than does retinoic acid; also recorded: inhibit DMBA induced mammary tumor development
tumor latency ([2]; 15 mg DMBA oral): 64 days
tumor incidents ([2]; 110 days post intubation): 58%
tumor number/rat ([2]; 110 days post intubation): 0.92 tumors per rat

IC50 (MCF-7 cells; Assay 1): 3.4 µM
inhibition at 1 µM (mRARα; 1 μM drug, 5 nM [3H]RA): 56%
inhibition at 1 µM (mRARβ): 64%
inhibition at 1 µM (mRARγ): 77%
SMILES: CC1=C(/C=C/C(C)=C/C=C/C(C)=C/C(=O)Nc2ccc(C[C@@H]3O[C@H](CO)[C@@H](O)[C@H](O)[C@H]3O)cc2)C(C)(C)CCC1 [4-(retinamido)benzyl-C-glucoside]
growth inhibition of MCF-7 cells, in words (MCF-7 cells): exhibit the best growth inhibition of the cells
competition with retinoic acid for the receptors, in words [3]: significantly compete with retinoic acid for the receptors

IC50 (MCF-7 cells; Assay 2): 15 µM
inhibition at 1 µM (mRARα; 1 μM drug, 5 nM [3H]RA): 12%
inhibition at 1 µM (mRARβ): 3%
inhibition at 1 µM (mRARγ): 2%
SMILES: CC1=C(/C=C/C(C)=C/C=C/C(C)=C/C(=O)Nc2ccc(C[C@@H]3OC[C@@H](O)[C@H](O)[C@H]3O)cc2)C(C)(C)CCC1 [4-(retinamido)benzyl-C-xyloside]

IC50 (MCF-7 cells; Assay 2): 27 µM
SMILES: CC1=C(/C=C/C(C)=C/C=C/C(C)=C/C(=O)Nc2ccc([C@@H]3O[C@H](CO)[C@@H](O)[C@H](O)[C@H]3O)cc2)C(C)(C)CCC1 [4-(retinamido)phenyl-C-glucoside]

degraded at 2 h [6]: ~50%
hydrolysis by β-glucuronidase within twenty minutes (β-glucuronidase [7]): completely hydrolyzed
SMILES: CC1=C(/C=C/C(C)=C/C=C/C(C)=C/C(=O)O[C@@H]2O[C@H](C(=O)O)[C@@H](O)[C@H](O)[C@H]2O)C(C)(C)CCC1 [RAG, retinoyl β-glucuronide, reference compound]

Second part, the compound before the results:

SMILES: CC1=C(/C=C/C(C)=C/C=C/C(C)=C/C(=O)Nc2ccc(C[C@@H]3O[C@H](C(=O)O)[C@@H](O)[C@H](O)[C@H]3O)cc2)C(C)(C)CCC1 [4-(retinamido)benzyl-C-glucuronide]
acid hydrolysis (stability) [4]: remained essentially intact
inhibition of β-glucuronidase mediated hydrolysis, in words (β-glucuronidase [5]): slightly more effective than the 4-(retinamido)phenyl-C-glucuronide
IC50 (β-glucuronidase [5]): 236 µM
IC50 (MCF-7 cells; Assay 1): 6.5 µM
growth inhibition of MCF-7 cells, in words (MCF-7 cells): exhibit the best growth inhibition of the cells
inhibition at 1 µM (mRARα; 1 μM drug, 5 nM [3H]RA): 67%
inhibition at 1 µM (mRARβ): 82%
inhibition at 1 µM (mRARγ): 78%
competition with retinoic acid for the receptors, in words [3]: significantly compete with retinoic acid for the receptors

SMILES: CC1=C(/C=C/C(C)=C/C=C/C(C)=C/C(=O)Nc2ccc([C@@H]3O[C@H](C(=O)O)[C@@H](O)[C@H](O)[C@H]3O)cc2)C(C)(C)CCC1 [4-(retinamido)phenyl-C-glucuronide]
acid hydrolysis (stability) [4]: remained essentially intact
inhibition of β-glucuronidase mediated hydrolysis, in words (β-glucuronidase [5]): act as inhibitors of β-glucuronidase mediated hydrolysis
IC50 (β-glucuronidase [5]): 267 µM
IC50 (MCF-7 cells; Assay 3): 50 µM
growth inhibition of MCF-7 cells, in words (MCF-7 cells): potency consistent with its glucoside analogue
inhibition at 1 µM (mRARα; 1 μM drug, 5 nM [3H]RA): 48%
inhibition at 1 µM (mRARβ): 47%
inhibition at 1 µM (mRARγ): 40%
competition with retinoic acid for the receptors, in words [3]: significantly compete with retinoic acid for the receptors

SMILES: CC1=C(/C=C/C(C)=C/C=C/C(C)=C\C(=O)O)C(C)(C)CCC1 [13-cis-retinoic acid, reference compound]
inhibition at 1 µM (mRARα): 28%
inhibition at 1 µM (mRARγ): 4%
cancer preventive activity (cancer): display cancer preventive activity

SMILES: CC(=O)OC/C=C(C)/C=C/C=C(C)/C=C/C1=C(C)CCCC1(C)C [retinyl acetate]
cancer preventive activity (cancer): display cancer preventive activity
